Measurements taken from patent publication EP4813992A1, “POLYARYL DERIVATIVE AND USE THEREOF” (Hangzhou HealZen Therapeutics Co., Ltd., priority 2023, dated 2025).

How the values were obtained:
HPK1 kinase [1] = biological target: T1, HPK1 kinase (Homo sapiens, UniProt Q92918); test: Lantha screen assay, inhibitory effect on HPK1 kinase; type: biochemical; settings: initial compound concentration 1 µM
Procedure: The Lantha screen assay is used to evaluate the inhibitory effect of the compounds on HPK1 kinase. • a) Kinase buffer: 50 mM HEPES (pH 7.5), 10 mM MgCl2, 4 mM DTT, 0.01% Tween-20, 0.01% BSA. • b) Compound Preparation: The compound is diluted with DMSO, and the initial detection concentration of the compound is 1 µM and is diluted to the corresponding concentration. • c) Kinase response and termination: A kinase solution is prepared by adding kinase buffer, the kinase solution and the compound are added to the test plate to be incubated at room temperature for 10 minutes. Fluorescein-PKC and ATP are added to the kinase buffer to form a substrate solution, and 5 µl of the substrate solution is added to the test plate to start the reaction to be incubated at room temperature for 90 minutes; then, 10 µl of a mixture of antibody and EDTA is added to terminate the reaction to be incubated at room temperature for 60 minutes. • d) The date is read by Envision instrument to plot a curve with the Log concentration of the inhibitor as the X-axis and the inhibition rate as the Y-axis, and then the formula Y=Bottom + (Top-Bottom)/(1+(IC50/X)^HillSlope) is used to obtain IC50. Table 1 Inhibitory activity the compounds of the invention on HPK1 kinase

HPK1 kinase [2] = biological target: T1, HPK1 kinase; test: Activity of degrading HPK1 in Jurkat cells (Western blot, 24 h); type: cell-based; set-up: endogenous in cells; host or cells: Jurkat; settings: HPK1 protein degradation
Procedure: The adjusted samples are added to 5*loading buffer, boiled at 100°C for 10 minutes, and then the samples are loaded after the temperature is returned to room temperature. • 4) Detection of samples: Electrophoresis is performed using 10% SDS-PAGE with a sample loading volume of 8 µL/well. After the membrane transfer is completed, the samples are blocked with 5% BSA at room temperature for 1 h. After the residual blocking solution is washed away with TBST, HPK1 and GAPDH antibodies are added for incubation overnight at 4°C. Washing is performed 3 more times with TBST on a shaker, 10 minutes each time. After washing is completed, the secondary antibody is added for incubation at room temperature for 1 hour; then, washing is performed 3 more times with TBST on a shaker, 10 minutes each time; finally, ECL exposure solution is used to develop and image the bands to detect changes in HPK1 protein.

T1 sequence (Q92918 whole entry): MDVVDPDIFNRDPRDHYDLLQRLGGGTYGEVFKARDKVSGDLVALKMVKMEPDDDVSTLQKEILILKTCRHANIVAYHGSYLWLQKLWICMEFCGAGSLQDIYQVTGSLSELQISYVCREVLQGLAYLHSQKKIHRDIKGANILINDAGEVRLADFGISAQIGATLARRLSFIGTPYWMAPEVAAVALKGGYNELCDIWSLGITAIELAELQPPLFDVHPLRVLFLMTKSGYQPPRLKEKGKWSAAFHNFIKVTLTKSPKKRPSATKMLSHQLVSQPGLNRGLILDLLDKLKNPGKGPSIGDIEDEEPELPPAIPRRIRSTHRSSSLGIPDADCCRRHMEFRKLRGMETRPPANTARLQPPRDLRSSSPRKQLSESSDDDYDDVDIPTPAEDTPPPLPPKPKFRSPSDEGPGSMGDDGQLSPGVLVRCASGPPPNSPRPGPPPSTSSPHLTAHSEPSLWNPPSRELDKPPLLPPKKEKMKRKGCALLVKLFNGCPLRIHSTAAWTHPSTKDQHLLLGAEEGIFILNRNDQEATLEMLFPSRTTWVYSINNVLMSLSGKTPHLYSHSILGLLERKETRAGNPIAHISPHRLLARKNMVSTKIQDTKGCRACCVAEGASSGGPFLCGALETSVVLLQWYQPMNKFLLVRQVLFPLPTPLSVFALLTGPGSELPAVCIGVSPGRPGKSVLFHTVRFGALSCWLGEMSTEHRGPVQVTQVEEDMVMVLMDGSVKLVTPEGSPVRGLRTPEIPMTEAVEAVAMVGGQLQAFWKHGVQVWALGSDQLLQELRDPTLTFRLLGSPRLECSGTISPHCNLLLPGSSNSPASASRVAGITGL

| SMILES | IC50 (HPK1 kinase [1]) [nM] | DC50 (HPK1 kinase [2]; class symbols) [nM] | DC50 (HPK1 kinase [2]; numeric values) [nM] |
| --- | --- | --- | --- |
| Cc1cc(N2CC(CN3CC=C(c4c(C)cc(-c5cnc6[nH]cc(-c7ccc(-c8ncco8)cc7)c6c5)cc4C)CC3)C2)ccc1N1CCC(=O)NC1=O [compound 138] | < 10 |  |  |
| Cc1cc(N2CC(CN3CC=C(c4ccc(-c5cnc6[nH]cc(-c7ccc(C(=O)N(C)C)cc7)c6n5)cc4CN(C)C)CC3)C2)ccc1N1CCC(=O)NC1=O [compound 139] | < 10 | < 10 |  |
| Cc1cc(N2CC(CN3CC=C(c4c(C)cc(-c5cnc6[nH]cc(-c7ccc(C(=O)N(C)C)cc7F)c6n5)cc4C)CC3)C2)ccc1N1CCC(=O)NC1=O [compound 140] | < 10 | < 10 |  |
| Cc1cc(-c2cnc3[nH]cc(-c4ccc(C(=O)N(C)C)cc4)c3n2)cc(C)c1C1=CCN(CC2CN(c3cc(F)c(N4CCC(=O)NC4=O)c(F)c3)C2)CC1 [compound 141] |  | < 10 |  |
| Cc1cc(-c2cnc3[nH]cc(-c4ccc(C(=O)N(C)C)cc4)c3c2)cc(C)c1C1=CCN(CC2CN(c3ccc(N4CCC(=O)NC4=O)c(Cl)c3)C2)CC1 [compound 142] | < 10 | < 10 |  |
| Cc1cc(-c2cnc3[nH]cc(-c4ccc(C(=O)N(C)C)cc4)c3n2)cc(C)c1C1=CCN(CC2CN(c3ccc4c(c3)c(N3CCC(=O)NC3=O)nn4C)C2)CC1 [compound 143] | < 10 |  |  |
| Cc1cc(-c2cnc3[nH]cc(-c4ccc(C(=O)N(C)C)cc4)c3n2)cc(C)c1C1=CCN(CC2CN(c3ccc4c(c3)c(C3CCC(=O)NC3=O)nn4C)C2)CC1 (centres unmarked) [compound 145] | < 10 |  |  |
| Cc1cc(-c2cnc3[nH]cc(-c4ccc(C(=O)N(C)C)cc4)c3n2)cc(C)c1C1=CCN(CC2CN(c3cccc4c(C5CCC(=O)NC5=O)coc34)C2)CC1 (centres unmarked) [compound 147] | < 10 |  |  |
| Cc1cc(-c2cnc3[nH]cc(-c4cn(CC(F)(F)F)nn4)c3n2)cc(C)c1C1=CCN(CC2CN(c3ccc(N4CCC(=O)NC4=O)c(F)c3)C2)CC1 [compound 148] | < 10 | < 10 |  |
| Cc1cc(-c2cnc3[nH]cc(-c4cc(Cl)sc4Cl)c3n2)cc(C)c1C1=CCN(CC2CN(c3ccc(N4CCC(=O)NC4=O)c(F)c3)C2)CC1 [compound 149] | < 10 | < 10 |  |
| Cc1cc(-c2cnc3[nH]cc(-c4csc(CO)c4)c3n2)cc(C)c1C1=CCN(CC2CN(c3ccc(N4CCC(=O)NC4=O)c(F)c3)C2)CC1 [compound 151] | < 10 | < 10 |  |
| CCc1nc(C)c(-c2c[nH]c3ncc(-c4cc(C)c(C5=CCN(CC6CN(c7ccc(N8CCC(=O)NC8=O)c(F)c7)C6)CC5)c(C)c4)nc23)s1 [compound 152] | < 10 | < 10 |  |
| Cc1cc(-c2cnc3[nH]cc(-c4cncs4)c3n2)cc(C)c1C1=CCN(CC2CN(c3ccc(N4CCC(=O)NC4=O)c(F)c3)C2)CC1 [compound 153] | < 10 | < 10 |  |
| Cc1cc(-c2cnc3[nH]cc(-c4cnsc4)c3n2)cc(C)c1C1=CCN(CC2CN(c3ccc(N4CCC(=O)NC4=O)c(F)c3)C2)CC1 [compound 154] | < 10 | < 10 |  |
| Cc1cc(-c2cnc3[nH]cc(-c4c(C)noc4C)c3n2)cc(C)c1C1=CCN(CC2CN(c3ccc(N4CCC(=O)NC4=O)c(F)c3)C2)CC1 [compound 155] | < 10 | < 10 |  |
| Cc1cc(-c2cnc3[nH]cc(-n4cc(N5CCOCC5)cn4)c3n2)cc(C)c1C1=CCN(CC2CN(c3ccc(N4CCC(=O)NC4=O)c(F)c3)C2)CC1 [compound 157] | < 10 | < 10 |  |
| Cc1cnn(-c2c[nH]c3ncc(-c4cc(C)c(C5=CCN(CC6CN(c7ccc(N8CCC(=O)NC8=O)c(F)c7)C6)CC5)c(C)c4)nc23)c1 [compound 158] | < 10 | < 10 |  |
| Cc1cc(-c2cnc3[nH]cc(-n4cc(C(F)F)cn4)c3n2)cc(C)c1C1=CCN(CC2CN(c3ccc(N4CCC(=O)NC4=O)c(F)c3)C2)CC1 [compound 159] | < 10 | < 10 |  |
| Cc1cc(-c2cnc3[nH]cc(-n4cc(C#N)cn4)c3n2)cc(C)c1C1=CCN(CC2CN(c3ccc(N4CCC(=O)NC4=O)c(F)c3)C2)CC1 [compound 161] | < 10 | < 10 |  |
| Cc1cc(-c2cnc3[nH]cc(-n4ncc5c4CCC5)c3n2)cc(C)c1C1=CCN(CC2CN(c3ccc(N4CCC(=O)NC4=O)c(F)c3)C2)CC1 [compound 164] | < 10 | < 10 |  |
| Cc1cc(-c2cnc3[nH]cc(-c4cnc5ccc(C#N)cn45)c3n2)cc(C)c1C1=CCN(CC2CN(c3ccc(N4CCC(=O)NC4=O)c(F)c3)C2)CC1 [compound 166] | < 10 | < 10 |  |

The remaining lines, values ahead:

| IC50 (HPK1 kinase [1]) [nM] | DC50 (HPK1 kinase [2]; class symbols) [nM] | DC50 (HPK1 kinase [2]; numeric values) [nM] | SMILES |
| --- | --- | --- | --- |
| < 10 | < 10 |  | Cc1cc(-c2cnc3[nH]cc(-c4ccc(C(=O)N(C)C)cc4)c3n2)cc(C)c1C1=CCN(CC2CN(c3ccc(C4CCC(=O)NC4=O)c(F)c3)C2)CC1 (centres unmarked) [compound 003] |
| < 10 | < 10 |  | Cc1cc(-c2cnc3[nH]cc(-c4ccc(C(=O)N(C)C)cc4)c3n2)cc(C)c1C1=CCN(CC2CN(c3ccc(N4CCC(=O)NC4=O)cc3)C2)CC1 [compound 008] |
| < 10 | < 10 |  | Cc1cc(N2CC(CN3CC=C(c4c(C)cc(-c5cnc6[nH]cc(-c7ccc(C(=O)N(C)C)cc7)c6c5)cc4C)CC3)C2)ccc1N1CCC(=O)NC1=O [compound 013] |
| < 10 | < 10 |  | Cc1cc(-c2c[nH]c3ncc(-c4cc(C)c(C5=CCN(CC6CN(c7ccc(C(=O)NC8CCC(=O)NC8=O)cc7)C6)CC5)c(C)c4)nc23)ccc1C(=O)N(C)C (centres unmarked) [compound 028] |
| < 10 |  | 22.3 | CCN1CCC(n2cc(-c3c[nH]c4ncc(-c5cc(C)c(C6=CCN(CC7CN(c8ccc(N9CCC(=O)NC9=O)c(F)c8)C7)CC6)c(C)c5)nc34)cn2)CC1 [compound 108] |
| < 10 | < 10 |  | Cc1cc(N2CC(CN3CC=C(c4c(C)cc(-c5cnc6[nH]cc(-c7cnc8ccn(C)c8c7)c6c5)cc4C)CC3)C2)ccc1N1CCC(=O)NC1=O [compound 111] |
| < 10 | < 10 |  | Cc1cc(-c2cnc3[nH]cc(-c4ccc(C(=O)N(C)C)cc4)c3n2)cc(C)c1C1=CCN(C2CC3(CCN(c4ccc(N5CCC(=O)NC5=O)c(F)c4)C3)C2)CC1 (centres unmarked) [compound 117] |
| < 10 | < 10 |  | Cc1cc(-c2cnc3[nH]cc(-c4ccc(C(=O)N(C)C)cc4)c3n2)cc(C)c1C1=CCN(C2CC3(C2)CN(c2ccc(N4CCC(=O)NC4=O)c(F)c2)C3)CC1 [compound 119] |
| < 10 |  |  | Cc1cc(-c2cnc3[nH]cc(-c4ccc(C(=O)N(C)C)cc4)c3n2)cc(C)c1C1=CCN(CC2CN(C(=O)c3ccc(Cl)c(N4CCC(=O)NC4=O)c3)C2)CC1 [compound 124] |
| < 10 |  |  | Cc1cc(N2CC(N3CC=C(c4c(C)cc(-c5cnc6[nH]cc(-c7ccc(C(=O)N(C)C)cc7)c6n5)cc4C)CC3)C2)ccc1N1CCC(=O)NC1=O [compound 125] |
| < 10 |  |  | Cc1cc(-c2cnc3[nH]cc(-c4ccc(C(=O)N(C)C)cc4)c3c2)cc(C)c1C1=CCN(CC2CCN(C(=O)c3ccc(Cl)c(N4CCC(=O)NC4=O)c3)CC2)CC1 [compound 126] |
| < 10 |  |  | Cc1cc(N2CC(CCN3CC=C(c4c(C)cc(-c5cnc6[nH]cc(-c7ccc(C(=O)N(C)C)cc7)c6n5)cc4C)CC3)C2)ccc1N1CCC(=O)NC1=O [compound 127] |
| < 10 |  |  | COCC(C)N1CCC(n2cc(-c3c[nH]c4ncc(-c5cc(C)c(C6=CCN(CC7CN(c8ccc(N9CCC(=O)NC9=O)c(C)c8)C7)CC6)c(C)c5)cc34)cn2)CC1 (centres unmarked) [compound 128] |
| < 10 |  |  | CNc1cc(-c2cnc3[nH]cc(-c4ccc(C(=O)N(C)C)cc4)c3n2)ccc1C1=CCN(CC2CN(c3ccc(N4CCC(=O)NC4=O)c(C)c3)C2)CC1 [compound 131] |
| < 10 | < 10 |  | Cc1cc(N2CC(CN3CC=C(c4c(C)cc(-c5cnc6[nH]cc(-c7cnc8c(c7)N(C)CCO8)c6n5)cc4C)CC3)C2)ccc1N1CCC(=O)NC1=O [compound 132] |
| < 10 |  |  | Cc1cc(N2CC(CN3CC=C(c4ccc(-c5cnc6[nH]cc(-c7ccc(C(=O)N(C)C)cc7)c6n5)cc4F)CC3)C2)ccc1N1CCC(=O)NC1=O [compound 133] |
| < 10 |  |  | Cc1cc(N2CC(CN3CC=C(c4c(C)cc(-c5cnc6[nH]cc(-c7cnn(C8CCNCC8)c7)c6c5)cc4C)CC3)C2)ccc1N1CCC(=O)NC1=O [compound 134] |
| < 10 |  |  | Cc1cc(N2CC(CN3CC=C(c4c(C)cc(-c5cnc6[nH]cc(-c7cnn(C8CCN(C(C)CC(=O)N(C)C)CC8)c7)c6c5)cc4C)CC3)C2)ccc1N1CCC(=O)NC1=O (centres unmarked) [compound 136] |
| < 10 |  |  | CCOc1cc(-c2cnc3[nH]cc(-c4ccc(C(=O)N(C)C)cc4)c3c2)ccc1C1=CCN(CC2CN(c3ccc(N4CCC(=O)NC4=O)c(C)c3)C2)CC1 [compound 137] |
